Test results published in patent publication US8557796B2, “Substituted 1-oxa-2,8-diaza-spiro [4,5] dec-2-ene derivatives and related treatment methods” (Gruenenthal GmbH, priority 2001, dated 2013).

System: batrachotoxin (BTX) binding site (binding site 2) of the sodium channel
Assay: Bond test on the sodium channel, binding site 2 (BTX bond), [3H]-batrachotoxinin A20 α-benzoate displacement
Settings: rat cerebrocortex synaptosomes

| Compound | BTX bond, 10 μM, % inhibition [%] | BTX bond, 10 μM, % inhibition (10 µM) [%] |
| --- | --- | --- |
| O=C(NCc1ccccc1)C1=NOC2(CCN(S(=O)(=O)c3cccs3)CC2)C1 [Example 136, 8-(thiophene-2-sulphonyl)-1-oxa-2,8-diaza-spiro[4,5]dec-2-ene-3-carboxylic acid benzylamide] | 44 |  |
| COc1cccc(CN2CCC(NC(=O)C3=NOC4(CCN(S(=O)(=O)c5cc(Cl)ccc5Cl)CC4)C3)C2)c1 (stereo not drawn) [Example 64] | 91 |  |
| COc1ccc(S(=O)(=O)N2CCC3(CC2)CC(C(=O)NC(C)Cc2ccc(Cl)cc2)=NO3)cc1 (stereo not drawn) [Example 164, 8-(4-methoxy-benzenesulphonyl)-1-oxa-2,8-diaza-spiro[4,5]dec-2-ene-3-carboxylic acid [2-(4-chloro-phenyl)-1-methyl-ethyl]-amide] | 52 |  |
| CCSc1ncccc1C(=O)N1CCC2(CC1)CC(C(=O)NCc1ccccc1)=NO2 [Example 115, 8-(2-ethylsulphanyl-pyridine-3-carbonyl)-1-oxa-2,8-diaza-spiro[4,5]dec-2-ene-3-carboxylic acid benzylamide] | 48 |  |
| O=C(C1=NOC2(CCN(S(=O)(=O)c3cccc(C(F)(F)F)c3)CC2)C1)N1CCC(Cc2ccccc2)CC1 [Example 211, (4-benzyl-piperidin-l-yl)-[8-(3-trifluoromethyl-benzene-sulphonyl)-1-oxa-2,8-diaza-spiro[4,5]dec-2-en-3-yl]-methanone] | 48 |  |
| O=C(C1=NOC2(CCN(S(=O)(=O)Cc3ccccc3)CC2)C1)N1CCN(CCCc2ccccc2)CC1 [Example 69] | 50 |  |
| Cc1onc(-c2c(Cl)cccc2Cl)c1C(=O)N1CCC2(CC1)CC(C(=O)NCc1cccs1)=NO2 [Example 197, 8-[3-(2,6-dichloro-phenyl)-5-methyl-isoxazole-4-carbonyl]-1-oxa-2,8-diaza-spiro[4,5]dec-2-ene-3-carboxylic acid (thiophen-2-ylmethyl)-amide] | 70 |  |
| Cc1ccc(F)cc1S(=O)(=O)N1CCC2(CC1)CC(C(=O)NCc1cccs1)=NO2 [Example 150, 8-(5-fluoro-2-methyl-benzenesulphonyl)-1-oxa-2,8-diaza-spiro[4,5]dec-2-ene-3-carboxylic acid (thiophen-2-ylmethyl)-amide] | 86 |  |
| Cc1oc(C(C)(C)C)cc1C(=O)N1CCC2(CC1)CC(C(=O)NC1CCCC1)=NO2 [Example 126, 8-(5-tert-butyl-2-methyl-furan-3-carbonyl)-1-oxa-2,8-diaza-spiro[4,5]dec-2-ene-3-carboxylic acid cyclopentylamide] | 56 |  |
| CCOC(=O)C1CCCCN1C(=O)C1=NOC2(CCN(C(=O)c3ccc(C(C)(C)C)cc3)CC2)C1 (stereo not drawn) [Example 195, 1-[8-(4-tert-butyl-benzoyl)-1-oxa-2,8-diaza-spiro[4,5]dec-2-ene-3-carbonyl]-piperidine-2-carboxylic acid ethyl ester] | 85 |  |
| O=C(NCc1cccc(F)c1)C1=NOC2(CCN(S(=O)(=O)c3cccs3)CC2)C1 [Example 24, 8-(thiophene-2-sulphonyl)-1-oxa-2,8-diaza-spiro[4,5]dec-2-ene-3-carboxylic acid 3-fluorobenzylamide] | 41 |  |
| CC(NC(=O)C1=NOC2(CCN(S(=O)(=O)c3cccs3)CC2)C1)c1cccc2c1OCCO2 (stereo not drawn) [Example 84, 8-(thiophene-2-sulphonyl)-1-oxa-2,8-diaza-spiro[4,5]dec-2-ene-3-carboxylic acid [1-(2,3-dihydro-benzo[1,4]dioxin-5-yl)-ethyl]-amide] | 58 |  |
| CN(C)S(=O)(=O)N1CCC2(CC1)CC(C(=O)N1CCN(C3CCCCCC3)CC1)=NO2 [Example 144, 3-(4-cycloheptyl-piperazine-1-carbonyl)-1-oxa-2,8-diaza-spiro[4,5]dec-2-ene-8 sulphonic acid dimethylamide] | 53 |  |
| O=C(NCc1ccccc1)C1=NOC2(CCN(C(=O)c3ccc(F)c(Cl)c3)CC2)C1 [Example 205, 8-(3-chloro-4-fluorobenzoyl)-1-oxa-2,8-diaza-spiro[4,5]dec-2-ene-3-carboxylic acid benzylamide] | 53 |  |
| O=C(C1=NOC2(CCN(S(=O)(=O)c3ccc(OC(F)(F)F)cc3)CC2)C1)N1CCN(CCCc2ccccc2)CC1 [Example 176, [4-(3-phenyl-propyl)-piperazin-l-yl]-[8-(4-trifluoromethoxy-benzenesulphonyl)-1-oxa-2,8-diaza-spiro [4,5]dec-2-en-3-yl]-methanone] | 76 |  |
| C=C(C)CN(CC)C(=O)C1=NOC2(CCN(S(=O)(=O)c3ccc(OC(F)(F)F)cc3)CC2)C1 [Example 103, 8-(4-trifluoromethoxy-benzenesulphonyl)-1-oxa-2,8-diaza-spiro[4,5]dec-2-ene-3carboxylic acid ethyl-(2-methyl-allyl)-amide] | 53 |  |
| Cc1ccc(C(C)NC(=O)C2=NOC3(CCN(S(=O)(=O)c4cccs4)CC3)C2)cc1 (stereo not drawn) [Example 23, 8-(thiophene-2-sulphonyl)-1-oxa-2,8-diaza-spiro[4,5]dec-2-ene-3-carboxylic acid (1-p-tolyl-ethyl)-amide] | 60 |  |
| O=C(NCc1cccs1)C1=NOC2(CCN(C(=O)C=Cc3ccccc3)CC2)C1 [Example 106] | 62 |  |
| COCCOCC(=O)N1CCC2(CC1)CC(C(=O)NCc1ccccc1)=NO2 [Example 87, 8-[2-(2-methoxy-ethoxy)-acetyl]-1-oxa-2,8-diaza-spiro[4,5]dec-2-ene-3-carboxylic acid benzylamide] | 42 |  |
| Cc1cccc(N2CCN(C(=O)C3=NOC4(CCN(S(=O)(=O)c5cccs5)CC4)C3)CC2C)c1 (stereo not drawn) [Example 31, (3-methyl-4-m-tolyl-piperazin-l-yl)-[8-(thiophene-2-sulphonyl)-1-oxa-2,8-diaza-spiro[4,5]dec-2-en-3-yl]-methanone] | 80 |  |
| CN(C)S(=O)(=O)N1CCC2(CC1)CC(C(=O)N1CCN(CCCc3ccccc3)CC1)=NO2 [Example 80, 3-[4-(3-phenyl-propyl)-piperazine-1-carbonyl]-1-oxa-2,8-diaza-spiro[4,5]dec-2-ene-8-sulphonic acid dimethylamide] | 44 |  |
| O=C(NCc1ccccc1)C1=NOC2(CCN(C(=O)COc3cccc(Cl)c3)CC2)C1 [Example 166, 8-[2-(3-chloro-phenoxy)-acetyl]-1-oxa-2,8-diaza-spiro[4,5]dec-2-ene-3-carboxylic acid benzylamide] | 58 |  |
| Cc1ccc(S(=O)(=O)N2CCC3(CC2)CC(C(=O)N(CCc2ccccc2)Cc2ccccc2)=NO3)cc1 [Example 18, 8-(toluene-4-sulphonyl)-1-oxa-2,8-diaza-spiro[4,5]dec-2-ene-3-carboxylic acid benzyl-phenethyl-amide] | 53 |  |
| Cc1ccc(S(=O)(=O)N2CCC3(CC2)CC(C(=O)NC2CCCC2OCc2ccccc2)=NO3)cc1 (stereo not drawn) [Example 67, 8-(toluene-4-sulphonyl)-1-oxa-2,8-diaza-spiro[4,5]dec-2-ene-3-carboxylic acid (2-benzyloxy-cyclopentyl)-amide] |  | 80 |
